Data from article PMC10113214 (Scientific Reports, 2023).
Entries after “also recorded” stand apart in the source; their conditions may differ. One block for each compound: values may come before it.

What was measured:
[1] = Circular dichroism, conformation and thermal stability of β-sheet; type: physicochemical
Procedure: The molar ellipticity of peptides were registered on a Jasco J-815 spectrometer (JASCO, Easton, MD, USA). Solutions of peptide hybrids were prepared in water solution (10 mg/ml), incubated at 37 °C for 4 h and then diluted to a final concentration of 0.20 mg/ml. CD spectra measurements were performed at 25 °C, 30 °C, 35 °C, 40 °C, 45 °C, 50 °C, 55 °C and 60 °C, at 190–260 nm wavelength and at a scan speed of […]. The background of the solvent was subtracted. The results are presented as the relationship of mean residue molar ellipticity (MRME) [deg × cm^2 × dmol^−1] to wavelength [nm]. Measurements were performed in triplicate. In order to determine the peptides’ denaturation temperatures, the molar ellipticity rotatory angle at a fixed wavelength of 196 nm, [θ]196, was measured as a function of temperature (max 100 °C). CD temperature measurements were carried out up to a temperature of 100 °C. Above this temperature, the cure was extrapolated with GraphPad Prism 8 software using the 4PL curve fit function. The denaturation temperature was determined as the temperature at which the change in ellipticity (θ) was half complete.

[2] = Transmission electron microscopy of nanofibres; type: physicochemical; settings: 1% gel in PBS diluted to 0.001%, uranyl acetate stain
Procedure: 1% gel solutions were prepared and incubated in PBS. The samples were then diluted to 0.001% concentration. A drop of solution was applied to a microcellulose membrane and stained with a 1.5% solution of uranyl acetate. The images were registered on a Tecnai Spirit BioTwin FEI Transmission Electron Microscope operating at 120 kV.

[3] = tested on: full-thickness excisional dorsal skin wounds; assay: Skin wound healing model in mice; type: in vivo, BALB/c mice; settings: BALB/c female mice, 6.0 mm punch dorsal wounds, 10 µL 1% hydrogel topically daily for five days; n = 6, SD
Procedure: Eight to ten-week-old BALB/c female mice were used for these experiments. All experimental procedures were approved by the Local Ethics Committee for Animal Experimentation in Bydgoszcz, Poland (Approval No. 49/2016). The study was conducted in compliance with the ARRIVE gudidelines. All animal handling methods were carried out in accordance with European Union Commission Recommendation of 18 June 2007 on guidelines for the accommodation and care of animals used for experimental and other scientific purposes. Before experiments, mice were randomized and divided into groups comprising six individuals. The mice were anaesthetized with inhaled 2–5% isoflurane. The skin on the dorsum was shaved and disinfected. After the skin was folded and raised cranially and caudally along the spine, the mouse was placed in a lateral position, and the folded skin was pierced with a 6.0 mm biopsy punch to make two through-and-through symmetrical wounds. Next, 10 µL of peptide hybrid hydrogel was applied onto each wound. Every gel was prepared in sterile conditions in biological safety cabinet, using sterile water to final concentration of 10 mg/ml (1%). Then the gels were incubated for 24 h allowing it to assemble. Control mice were treated with RADA16-I. The wounds were covered with a transparent Tegaderm TM dressing to protect the wound from outer environment of the cage and other animals. It was fastened with an adhesive plaster wrapped around the animal’s torso. The peptide hybrids were applied daily to the wounds for five consecutive days. The dressings were replaced daily in the first five days of the experiment and every second day until the end of the second week of the experiment. To measure the wound areas the wounds were photographed with a ruler placed next to the injury site. Wound areas were calculated using the computer-assisted image analysis program ImageJ[51].

dorsal skin wounds = assay: Histological evaluation of skin samples; type: in vivo, BALB/c mice; settings: Masson’s trichrome
Source text: Mice were sacrificed on day 18 post-injury. In addition, for investigation of early wound healing, 1 mouse from each group was sacrificed on day 4 post-injury. The skin samples were collected and stored in formalin. Skin samples embedded in paraffin were cut into 5 µm sections following staining with Masson’s trichrome (green: collagen, dermis; grey or dark grey: cell nuclei, epidermis, sebaceous glands; dark red: keratinized epidermis, muscle, hair; light red: red blood cells). Image acquisitions were made with a Leica DM IL microscope. To evaluate the collagen density in dorsal skin wounds, we employed the method of colour deconvolution described by Ruifrok and Johnston[52]. Using the ImageJ software with a colour deconvolution plug-in[53], we analyzed between 7 and 9 images of dorsal skin samples stained with Masson’ trichrome, representing 2–3 mice per group. The results are presented as mean relative collagen density.

[4] = biological target: T1, Human neutrophil elastase (Homo sapiens, UniProt P08246); assay: Elastase enzymatic cleavage; type: in vitro ADME; settings: human neutrophil elastase 150 nM, peptide 1 mM, 30 min, 37 °C
T1 construct: purchased Sigma-Aldrich
T1 sequence (P08246 30-267): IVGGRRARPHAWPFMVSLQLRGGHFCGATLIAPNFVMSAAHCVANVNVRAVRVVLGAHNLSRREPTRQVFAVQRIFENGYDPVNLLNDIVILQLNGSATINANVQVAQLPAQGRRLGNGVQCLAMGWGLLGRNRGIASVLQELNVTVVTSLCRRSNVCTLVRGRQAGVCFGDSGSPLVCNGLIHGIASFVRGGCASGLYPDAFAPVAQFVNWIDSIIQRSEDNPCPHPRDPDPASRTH
Procedure: Human neutrophil elastase (EC No. 3.4.21.37, Sigma-Aldrich) was used to study peptide susceptibility to that enzyme. Peptides were dissolved in 0.1 M Tris HCl, 500 mM NaCl, 0.05% Triton X-100, 20 mM CaCl2 pH 7.5 buffer mixture. Peptides (final concentration 1 mM) were mixed with the enzyme (final concentration 150 nM) and incubated for 30 min. in a thermoshaker (37 °C, 300 rpm). The reaction was stopped by a 10% aqueous solution of TFA. The results were analyzed using HPLC and MALDI or LC–MS. Details of this experiment are described in the Supplementary Data.

Rheology of hydrogels = type: physicochemical; settings: 1% hydrogel, 37 °C
Procedure: Rheological parameters of the hydrogels were identified using an MCR 302 rheometer (Anton Paar GmbH, Graz, Austria). The rheometer was equipped with a CP50-1 stainless steel cone-and-plate system of 50 mm diameter, 1° cone angle and 50 µm cone truncation and a Peltier controlled temperature unit. An aliquot of 900 µL of 1% hydrogel was applied to a plate cone. The linear viscoelastic (LVE) region was determined through an amplitude sweeps: shear strain (0.01–100% at 6 rad s^−1) and shear stress (0.001–10 Pa at 6.28 rad s^−1). Frequency sweep were measured from 0.01 to 100 rad s^−1 at 2.5% strain. The frequency dependence of the storage modulus (G’) and loss modulus (G”) of the hydrogels were measured at 37 °C. All experiments were carried out in triplicate and reported as the mean of three repeats.

[5] = tested on: Human neutrophil elastase (EC No. 3.4.21.37, Sigma-Aldrich); assay: Human neutrophil elastase (final concentration 150 nM) in 0.1 M Tris HCl, 500 mM NaCl, 0.05% Triton X-100, 20 mM CaCl2 pH 7.5 buffer mixture; settings: 37 °C, up to 30 min.

heat stability of β-sheet structure (rank) ([1]; CD scans at different temperatures): lowest stability of β-sheet structure
Compound: CC(=O)N[C@@H](CCCNC(=N)N)C(=O)N[C@@H](C)C(=O)N[C@@H](CC(=O)O)C(=O)N[C@@H](C)C(=O)N[C@@H](CCCNC(=N)N)C(=O)N[C@@H](C)C(=O)N[C@@H](CC(=O)O)C(=O)N[C@@H](C)C(=O)N[C@@H](CCCNC(=N)N)C(=O)N[C@@H](C)C(=O)N[C@@H](CC(=O)O)C(=O)N[C@@H](C)C(=O)N[C@@H](CCCNC(=N)N)C(=O)N[C@@H](C)C(=O)N[C@@H](CC(=O)O)C(=O)N[C@@H](C)C(N)=O [RADA16-I, Ac-(Arg-Ala-Asp-Ala)4-NH2]

fibre thickness (TEM) [2]: 6–8 nm
temperature of first disruption of the β-sheets ([1]; CD, [θ]196 nm as function of temperature 4–100 °C, gel 10 mg/ml in water, 37 °C 4 h, diluted to 0.20 mg/ml, decrease of molar ellipticity): ~52 °C
transition temperature (half β-conformation, half disordered) ([1]; CD, [θ]196 nm vs temperature, 0.20 mg/ml in water, above 100 °C curve extrapolated, 4PL fit): 95 °C
identified fragments of peptides after elastase digestion (most abundant MS signals) ([4]; 300 rpm, 0.1 M Tris HCl, 500 mM NaCl, 0.05% Triton X-100, 20 mM CaCl2 pH 7.5, HPLC and MALDI or LC-MS, fragment Ac-(RADA)4-GGG-AAPV-COOH): Ac-(RADA)4-GGG-AAPV-COOH
magnitude of G’ compared with other gels (Rheology of hydrogels; cone-plate, frequency sweep, mean of three repeats): around one-tenth of these values
shear strain above which the gel behaves like a liquid (G” > G’) (Rheology of hydrogels; strain sweep, ω = 6.28 rad/s): above 30%
Compound: CC(=O)N[C@@H](CCCNC(=N)N)C(=O)N[C@@H](C)C(=O)N[C@@H](CC(=O)O)C(=O)N[C@@H](C)C(=O)N[C@@H](CCCNC(=N)N)C(=O)N[C@@H](C)C(=O)N[C@@H](CC(=O)O)C(=O)N[C@@H](C)C(=O)N[C@@H](CCCNC(=N)N)C(=O)N[C@@H](C)C(=O)N[C@@H](CC(=O)O)C(=O)N[C@@H](C)C(=O)N[C@@H](CCCNC(=N)N)C(=O)N[C@@H](C)C(=O)N[C@@H](CC(=O)O)C(=O)N[C@@H](C)C(=O)NCC(=O)NCC(=O)NCC(=O)N[C@@H](C)C(=O)N[C@@H](C)C(=O)N1CCC[C@H]1C(=O)N[C@H](C(=O)NCC(=O)NCC(=O)NCC(=O)N[C@@H](CCCNC(=N)N)C(=O)N[C@@H](CC(=O)O)C(=O)N[C@@H](CCCCN)C(=O)N[C@H](C(=O)N[C@@H](Cc1ccc(O)cc1)C(=O)N[C@@H](CCCNC(=N)N)C(N)=O)C(C)C)C(C)C [RADA-IM, Ac-(Arg-Ala-Asp-Ala)4-Gly-Gly-Gly-Ala-Ala-Pro-Val-Gly-Gly-Gly-Arg-Asp-Lys-Val-Tyr-Arg-NH2]
wound closure on day 7 [3]: 16.2 ± 21.1%
collagen density on day 18 post-injury (dorsal skin wounds; colour deconvolution, 7–9 images, 2–3 mice per group): statistically significant lower collagen density than the RADA16-I sample
hair follicles in wound area on day 18 (dorsal skin wounds; day 18 post-injury): many hair follicles could be observed
epithelium (membrane-like structure) thickness on day 4 post-injury (dorsal skin wounds; versus RADA16-I group, Mann–Whitney U test): significantly thicker epithelium
main / predominant fragments of elastase digestion ([4]; pH 7.5 buffer, HPLC, mass spectrometry): Gly^24Gly^25Gly^26Arg^27Asp^28Lys^29Val^30Tyr^31Arg^32

Compound: Ac-(Arg-Ala-Asp-Ala)4-Gly-Gly-Gly-Ala-Ala-Pro-Val-Gly-Gly-Gly-Arg-Asp-Lys-Val-Tyr-Arg-NH2
cleaved bond [5]: Val23-Gly24, major; also recorded: Gly24-Gly25, major

Compound: Ac-(Arg-Ala-Asp-Ala)4-Gly-Gly-Gly-Ala-Ala-Pro-Val-Gly-Gly-Gly-His-Lys-NH2
cleaved bond [5]: Val23-Gly24; also recorded: Gly25-Gly26, major

Compound: Ac-(Arg-Ala-Asp-Ala)4-Gly-Gly-Gly-Ala-Ala-Pro-Val-Gly-Gly-Gly-Lys-Gly-His-Lys-NH2
cleaved bond [5]: Val23-Gly24; also recorded: Ala21-Pro22, major; also recorded: Ala20-Ala21, major
